In general, IC50 refers to the concentration that gives 50% inhibition.

Test [1] addresses T1, Human leucocytic elastase (Homo sapiens, UniProt P08246).
T1 sequence (P08246 30-247 limits assumed): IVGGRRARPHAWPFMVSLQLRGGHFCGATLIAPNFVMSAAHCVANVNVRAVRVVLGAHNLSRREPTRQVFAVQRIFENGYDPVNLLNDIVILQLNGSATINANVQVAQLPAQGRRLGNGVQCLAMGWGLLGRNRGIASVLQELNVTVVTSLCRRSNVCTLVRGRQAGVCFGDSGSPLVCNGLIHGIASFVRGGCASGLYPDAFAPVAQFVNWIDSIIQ
Briefly: Inhibition of human leucocytic elastase (succinyltrialanine p-nitroanilide substrate). Format: biochemical. Particulars: elastase 1 μg/ml, pre-incubated 15 min; 1% acetone; 410 nm. On the procedure: (§1) The inhibition test was carried out by using succinyltrialanine p-nitroanilide as a synthetic substrate. Human leucocytic elastase, used at a concentration of 1 μg/ml, was first pre-incubated for 15 min with the compounds of the invention, used at a concentration of 0.5, 5, 10, 25 and 50 μg/ml. These compounds were added in the form of a solution in acetone, the final acetone concentration of the reaction mixture being 1%.
The degree of hydrolysis of the substrate was determined by measuring the amount of p-nitroaniline released, using a Philips PO 8700 spectrophotometer at 410 nm. The 50% inhibitory concentration (IC50) in mole/liter was then determined by a graphical method, using the inhibition values obtained with the different concentrations of the substrate and the inhibitor. […] It can thus be seen that the inhibitory action of these compounds increases with the number of carbon atoms in the R^2 group on going from C9 to C17.

For test [2], the target named is T1, Human leucocytic elastase. As to the kind of experiment: Serine protease inhibition, E/IC50: human leucocytic elastase. The class given is biochemical. Particulars: human leucocytic elastase vs thrombin. Here is the method: as §1
The degree of hydrolysis of the substrate was determined by measuring the amount of p-nitroaniline released, using a Philips PO 8700 spectrophotometer at 410 nm. […]
The inhibition exerted by the following two compounds on serine-containing proteases other than human Teucocytic elastase was determined in this Example: […]
The appropriate substrate was then added to each enzyme, and its hydrolysis was monitored with a Philips 8700 spectrophotometer at 410 nm by measuring the amount of p-nitroaniline appearing in the medium. […]
(§2) Inhibition of human leucocytic elastase was also determined, as in Example 12.
(§3) To be able to compare the inhibitory power of the compounds tested on the various enzymes used, the E/IC50 value was calculated, where E is the concentration of the enzyme in the reaction mixture (also expressed in mole/l ). […]

The target of the next test is T2, Trypsin (Bos taurus, UniProt P00760).
T2 sequence (P00760 24-246): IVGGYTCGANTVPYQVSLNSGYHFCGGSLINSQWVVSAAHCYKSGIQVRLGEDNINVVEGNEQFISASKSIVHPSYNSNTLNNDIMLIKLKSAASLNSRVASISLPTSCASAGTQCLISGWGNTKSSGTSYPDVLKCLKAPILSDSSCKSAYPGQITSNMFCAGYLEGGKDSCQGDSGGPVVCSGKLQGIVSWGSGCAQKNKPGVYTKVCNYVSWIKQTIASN
As to the kind of experiment: Serine protease inhibition, E/IC50: trypsin. The class given is biochemical. On the procedure:
(§4) The inhibition exerted by the following two compounds on serine-containing proteases other than human Teucocytic elastase was determined in this Example:
(§5) More specifically, the activity of a) pig pancreatic elastase, b) trypsin, c) thrombin and d) plasmin was determined in the presence of these inhibitors and of the synthetic substrates: a) succinyltrialanine p-nitroanilide, b) N-benzoyl-DL-arginine p-nitroanilide, c) N-p-tosyl-gly-pro-arg p-nitroanilide and d) N-p-tosyl-gly-pro-lys p-nitroanilide, respectively.
(§6) Each enzyme was first incubated for 15 min with 0-50 μg/ml of compound B or P mentioned above, which had been dissolved in acetone as in the test with human leucocytic elastase, the final concentration of this solvent in the reaction mixture being 1%.
(§7) The appropriate substrate was then added to each enzyme, and its hydrolysis was monitored with a Philips 8700 spectrophotometer at 410 nm by measuring the amount of p-nitroaniline appearing in the medium.
The results were used to plot the inhibition of the enzymatic activity against the amount of inhibitor present in the medium. These curves were then used to find the median inhibitory concentration (IC50) in mole/l, which inhibits 50% of the enzymatic activity.
To be able to compare the inhibitory power of the compounds tested on the various enzymes used, the E/IC50 value was calculated, where E is the concentration of the enzyme in the reaction mixture (also expressed in mole/l ). The higher the value of this quotient, the stronger the inhibitory activity, and therefore the lower the number of moles of the inhibitor that are needed to obtain a 50% inhibition for the same number of moles of the enzyme.

The test system of a further test is serine proteases. As to the kind of experiment: Comparison of inhibitory power over all serine proteases used (E/IC50). The note with it: all enzymes of Table 2. The class given is biochemical. On the procedure:
as §4, §5, §6, §7
(§8) The results were used to plot the inhibition of the enzymatic activity against the amount of inhibitor present in the medium. […]
as §2, §3

The target of a further test is Pig pancreatic elastase (Sus scrofa, UniProt P00772). As to the kind of experiment: Serine protease inhibition, E/IC50: pig pancreatic elastase. The class given is biochemical. The note with it: pig pancreatic elastase vs thrombin. On the procedure:
as §4, §5, §6, §7, §8, §3

A further test has as its system Plasmin. Briefly: Serine protease inhibition, E/IC50: plasmin. The class given is biochemical. Here is the method:
as §4, §5, §6, §7, §8, §3

In test [3] the target is T1, Human leucocytic elastase. As to the kind of experiment: Protective action on the elastin in rabbit skin sections treated with human leucocytic elastase. Particulars: 1.5 h at 37° C. On the procedure: The segments of rabbit skin were incubated for 1.5 h at 37° C. In the control experiment, they were incubated only with the buffer (100-mM tris-HCl, 0.1% of Brij 35, pH 8) under the same conditions. Thin sections of the skin specimens were then fixed for 2 min in 95% ethanol and stained for 3 h by a modified Verhoeff method, described by Godeau et al. [cf. Pathol. Biol., 32 (1984) pp. 215-6]. After a suitable contrast treatment, the surface density of the elastic fibres was determined by automatic image analysis, carried out directly on the microscope slides.

Test [4] deals with T1, Human leucocytic elastase. As to the kind of experiment: Protective action on insoluble elastin against human leucocytic elastase (second and third series, elastin pre-incubated with compound). The class given is biochemical. The note with it: 50-100 μg/ml, elastin first incubated with compound 30 min or 10 min. On the procedure: Tritiated insoluble elastin extracted from the nuchal ligament was then added in a concentration of 75 μg/ml, corresponding to a radioactivity level of 2.2×10^6 counts per minute (cpm) per ml. 2) Protective action […] 3) Third series […] The mixture was then centrifuged, the supernatant was discarded, and the residue was suspended in the buffer that contained human leucocytic elastase. The degree of the hydrolysis of elastin was calculated in all three cases after incubation with elastase for 7 h at 37° C. by determining the radioactivity in the solubilized peptides derived from the elastin.

Test [5] addresses T1, Human leucocytic elastase. As to the kind of experiment: Direct inhibition of elastin-cleaving activity of human leucocytic elastase (first series, elastase pre-incubated with compound). Format: biochemical. Particulars: pH 8.4, 7 h at 37° C. On the procedure:
1) Inhibitory action […] Tritiated insoluble elastin extracted from the nuchal ligament was then added in a concentration of 75 μg/ml, corresponding to a radioactivity level of 2.2×10^6 counts per minute (cpm) per ml. The degree of the hydrolysis of elastin was calculated in all three cases after incubation with elastase for 7 h at 37° C. by determining the radioactivity in the solubilized peptides derived from the elastin.

Structures are written as SMILES.

Pig pancreatic elastase, sequence (P00772 27-266): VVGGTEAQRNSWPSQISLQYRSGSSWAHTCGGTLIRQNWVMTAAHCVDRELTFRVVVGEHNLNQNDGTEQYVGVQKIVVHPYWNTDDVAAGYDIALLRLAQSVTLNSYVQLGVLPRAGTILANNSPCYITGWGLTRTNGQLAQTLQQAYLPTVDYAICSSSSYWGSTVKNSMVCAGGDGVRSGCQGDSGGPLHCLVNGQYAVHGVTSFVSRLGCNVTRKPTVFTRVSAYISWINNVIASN

In test [1], `CCCCCCCCCCCCCCCC(=O)N1C(=O)c2ccccc2S1(=O)=O` [Example 3, 2-palmitoyl-benzisothiazolinone-1-dioxide] yielded an IC50 of 2.1 µM. The “inhibition relative to thrombin” value (in test [2]; on Trypsin (trypsin vs thrombin); against Pig pancreatic elastase) was 20-40 times in each case. Further, the “inhibitory power relative to butyrylbenzisothiazolinone-1-dioxide (in words)” value in the test on serine proteases was “better inhibitor than butyrylbenzisothiazolinone-1-dioxide, irrespective of the enzyme used”.
With `CCCC(=O)N1C(=O)c2ccccc2S1(=O)=O` [2-butyryl-benzisothiazolinone-1-dioxide], the “effect on plasmin (in words)” value with Plasmin (0-50 μg/ml) was “no effect on plasmin”. The E/IC50 result with Plasmin (E = enzyme concentration (mole/l), N-p-tosyl-gly-pro-lys p-nitroanilide substrate) is “inactive”; on Trypsin (E = enzyme concentration (mole/l), N-benzoyl-DL-arginine p-nitroanilide substrate), “activator”. In addition, the “inhibition relative to thrombin (in words)” value (in [2]; against Pig pancreatic elastase) was “more strongly than it inhibits thrombin” in each case. In addition, at Trypsin (0-50 μg/ml), the “effect on trypsin (in words)” value is reported as “activates trypsin”.
On to `C=CCCCCCCCCC(=O)N1C(=O)c2ccccc2S1(=O)=O` [Example 6, 2-undecenoylbenzisothiazolinone-1-dioxide], for which it took 75 µM to reach half-maximal inhibition in test [1] (IC50).
Consider `CCCCCCCCCCCC(=O)N1C(=O)c2ccccc2S1(=O)=O` [Example 1, 2-lauroylbenzisothiazolinone-1-dioxide], for which, in test [3] (elastase 15 μg/ml + compound 350 μg/ml, V without elastase 6.25±0.5%, with elastase alone 4.1±0.8%), the “volume fraction V occupied by the cutaneous elastic fibres” value worked out at 6.00±1%. Also, the inhibition at 350 µg/mL in [3] (pH 8, elastase 15 μg/ml + compound 350 μg/ml, read-out: protection from the action of elastase) was 96%. Further, the concentration for half-maximal inhibition (IC50) turned out to be 11 µM in test [1] and 75 µM in test [5] (elastase 1 μg/ml incubated 10 min with compound). In addition, the “maximum inhibition (protection of insoluble elastic fibres)” value in [4] was 50%. Moreover, in test [5] (45 μg/ml, elastase 1 μg/ml, tritiated insoluble elastin 75 μg/ml), the inhibition at 45 µg/mL came out at 80%.
In [1], `COc1ccc(CCCC(=O)N2C(=O)c3ccccc3S2(=O)=O)cc1` [Example 10] displayed a 50% inhibitory concentration (IC50) of 36 µM.
Same read-out and setting: as for `COc1ccc(C=CC(=O)N2C(=O)c3ccccc3S2(=O)=O)cc1OC` [Example 7, 2-[(3,4)-dimethoxycinnamoyl]-benzisothiazolinone-1-dioxide], the figure is 5 µM.
On the same count and under the same terms, then `CCCCCCCCCCCCCCCCCC(=O)N1C(=O)c2ccccc2S1(=O)=O` [Example 4, 2-stearoylbenzisothiazolinone-1-dioxide], with 4.7 µM; and `CCCCCCCCCCCCCC(=O)N1C(=O)c2ccccc2S1(=O)=O` [Example 2, 2-myristoylbenzisothiazolinone-1-dioxide], with 9.2 µM.
In test [1], `CCCCCCCCCC(=O)N1C(=O)c2ccccc2S1(=O)=O` [Example 5] registered an IC50 of 86 µM.
Molecule `O=C(CCc1ccccc1)N1C(=O)c2ccccc2S1(=O)=O` [Example 9] yielded an IC50 in [1] of 48 µM.
`O=C(C=Cc1ccccc1)N1C(=O)c2ccccc2S1(=O)=O` [Example 8] yielded a concentration for half-maximal inhibition (IC50) in [1] of 90 µM.

The record behind these values is patent publication US5338747A, “Benzoisothiazolinone-1-dioxide derivatives as elastase inhibitors” (Chesebrough-Pond's USA Co., Division of Conopco, Inc., priority 1990, dated 1994).
